Test results taken from paper PMC4746011, “IspH–RPS1 and IspH–UbiA: “Rosetta stone” proteins” (Chemical Science, 2015).
Read-outs that look alike come from different tables or passages of the source.

Columns and labels:
[1] = test system: IspH from the thermophile Aquifex aeolicus; set-up: method as in PMID 24481599; conditions: A. aeolicus IspH; cited from earlier work
CthIspH–RPS1 [2] = molecular target: T1, CthIspH–RPS1 (Acetivibrio thermocellus (Clostridium thermocellum), UniProt A3DDC0); assay: CthIspH–RPS1 Michaelis–Menten kinetics (methyl viologen assay); type: biochemical; conditions: substrate HMBPP, room temperature
Procedure: (§1) The CthIspH kinetics and inhibition assays were performed by using the methyl viologen method described previously.[27] […] The reactions were monitored at 606 nm. K m and k cat were fitted by using a Michaelis–Menten relation in Origin 9.1. The extinction coefficient for the methyl viologen radical cation at 606 nm was taken to be 13 700 M^–1 cm^–1.[28]
Substrate consumption and product formation were also confirmed by LC-MS (Fig. S3 ^†) and NMR analysis.

CthIspH–RPS1 [3] = molecular target: T1, CthIspH–RPS1; assay: CthIspH–RPS1 inhibition assay (methyl viologen method); type: biochemical; on IC50 against CthIspH–RPS1: 40 nM enzyme, 50 µM HMBPP, 40 µM dithionite
Procedure: as §1

AaIspH = test system: AaIspH; set-up: method as in PMID 24481599, PMID 20426416; conditions: Fig. 5a bottom value; read-out: IC50 against AaIspH; cited from earlier work
[4] = substrate: C/C(=C\COP(=O)(O)OP(=O)(O)O)CO; assay: purified protein, by the assay type; conditions: other: substrate HMBPP, room temperature
[5] = read-out: IC50 against CthIspH–RPS1

Molecule	IC50 (CthIspH–RPS1 [3]; [5]) [µM]	also measured
C/C(=C\COP(=O)(O)OP(=O)(O)O)CO [HMBPP, (E)-1-hydroxy-2-methyl-but-2-enyl 4-diphosphate]		Km [1]: 7 µM; kcat [1]: 1.0 s^–1; kcat (CthIspH–RPS1 [2]): 56 min^–1
O=P(O)(O)OP(=O)(O)OCc1cccnc1 [Compound 7]	150	
O=P(O)(O)OP(=O)(O)OCc1ccncc1 [Compound 10]	120	
C#CCCCOP(=O)(O)OP(=O)(O)O [Compound 6]	47	
CC#CCOP(=O)(O)OP(=O)(O)O [Compound 12]	760	
C#CCCOP(=O)(O)OP(=O)(O)O [Compound 5]	3.3	IC50 (AaIspH): 0.45 µM
O=P(O)(O)OP(=O)(O)SCC#CCO [Compound 13, 4-Hydroxybut-2-ynyl-S-thiolodiphosphate]		IC50 (CthIspH–RPS1 [3]): 3.8 µM; activity against CthIspH–RPS1 (in words) (CthIspH–RPS1 [3]; inhibition of catalytic activity): very active
O=P(O)(O)OP(=O)(O)OCC#CCO [Compound 11]	92	
C#CCOP(=O)(O)OP(=O)(O)O [Compound 4]	8.8	
O=P(O)(O)OP(=O)(O)OCCc1cccnc1 [Compound 8]	240	
O=P(O)(O)OP(=O)(O)OCCCc1cccnc1 [Compound 9]	490	
CthIspH–RPS1 (Acetivibrio thermocellus ATCC 27405) (protein) MEIIVAKSAGFCFGVSNAVKTVNNLLENQKEPIYTYGPIIHNAQVVDLFTSKGVKKIDDIDEAEPNGHIVIRAHGVTPDIYKKISDKGLILEDATCPYVKKIHNLVKEKSEEGYKIIIVGDRNHPEVIGINGWCNNQAYIVDSVDDVEKFPTSDEKVCVVAQTTITNEKWLEVNTALKKKFKNILKFDTICSATSRRQNEAEEIAKNVDMMIIIGGKNSSNTQKLYDICKKHCNLTYKIETSGDLPPVDIKKIKKVGISAGASTPDWVIEEVIKKMSELNKQGMVDILENDGEIDFANAFENSFVRIHAGDTVKGKIIGFNSNEVFVDLGYKADGIIPLEEYTDDPNFNIEKEVKIGEEVEVLVEMVNDGEGNVRLSKRKVDAIKSWDDIVKAYENKTPVNAYVVEVVKGGVIASYKGVRIFVPASQVSDRYVKDLNEFLKRSITVRILELNEKRRKVVGSARVIIEEEKEALANRTWNSMEVGKVFKGTVKSLTDFGAFVDIGGVDGLIHISELSWTRVKHPSEVLKVGDEVEVTVLEFDKEKKKVSLGYRKMEDNPWYKIEEKYKVGDVVKVTVLRFAPFGAFVELEKGVDGLVHISQISSKRLAKVEDALEIGMKVDAKIIEVDGENKKISLSIKEVMPIDPPSSKSESKAKDGSEAKETSANTEEEAEPTEHREDMNVTVEDLVSKTTQS		Km [4]: 15 µM
